Reference: EP1247803A2, “Indolinone compounds suitable for modulation of protein kinases” (Sugen, Inc., priority 1996, dated 1998)

Columns and labels:
[1] = tested on: MET; assay: MET biochemical kinase assay; parameters: species or system human; concentration or dose not given beside the values
Summary of the method: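 Human MET was captured from cell lysates onto ELISA plates via goat anti-rabbit Fc and rabbit polyclonal antibody to the MET cytoplasmic domain. After washing, test compounds and kinase buffer with ATP and divalent metal ions were added. Phosphotyrosine was detected with HRP-conjugated anti-phosphotyrosine antibody and TMB colorimetric read-out.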

[2] = target: T1, FLK-1 receptor (Mus musculus, UniProt P35918); assay: FLK-1 ELISA (kinase activity of the FLK-1 receptor in FLK-1/NIH3T3 cells, VEGF stimulated); assay type: cell-based; parameters: concentration or dose not given beside the values
T1 construct: expressed in transfected cells; host or cells: NIH3T3 C7#3
Summary of the method: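 NIH3T3 C7#3 cells expressing FLK-1 were seeded at 25.000 cells/well, serum-starved overnight in 0.1% FBS, then treated with compound for two hours at 37°C (final DMSO 0.5%) before VEGF stimulation. Receptor was captured on anti-rabbit IgG-coated ELISA plates bearing affinity-purified anti-FLK-1 antiserum.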

T1 sequence (P35918 20-1345): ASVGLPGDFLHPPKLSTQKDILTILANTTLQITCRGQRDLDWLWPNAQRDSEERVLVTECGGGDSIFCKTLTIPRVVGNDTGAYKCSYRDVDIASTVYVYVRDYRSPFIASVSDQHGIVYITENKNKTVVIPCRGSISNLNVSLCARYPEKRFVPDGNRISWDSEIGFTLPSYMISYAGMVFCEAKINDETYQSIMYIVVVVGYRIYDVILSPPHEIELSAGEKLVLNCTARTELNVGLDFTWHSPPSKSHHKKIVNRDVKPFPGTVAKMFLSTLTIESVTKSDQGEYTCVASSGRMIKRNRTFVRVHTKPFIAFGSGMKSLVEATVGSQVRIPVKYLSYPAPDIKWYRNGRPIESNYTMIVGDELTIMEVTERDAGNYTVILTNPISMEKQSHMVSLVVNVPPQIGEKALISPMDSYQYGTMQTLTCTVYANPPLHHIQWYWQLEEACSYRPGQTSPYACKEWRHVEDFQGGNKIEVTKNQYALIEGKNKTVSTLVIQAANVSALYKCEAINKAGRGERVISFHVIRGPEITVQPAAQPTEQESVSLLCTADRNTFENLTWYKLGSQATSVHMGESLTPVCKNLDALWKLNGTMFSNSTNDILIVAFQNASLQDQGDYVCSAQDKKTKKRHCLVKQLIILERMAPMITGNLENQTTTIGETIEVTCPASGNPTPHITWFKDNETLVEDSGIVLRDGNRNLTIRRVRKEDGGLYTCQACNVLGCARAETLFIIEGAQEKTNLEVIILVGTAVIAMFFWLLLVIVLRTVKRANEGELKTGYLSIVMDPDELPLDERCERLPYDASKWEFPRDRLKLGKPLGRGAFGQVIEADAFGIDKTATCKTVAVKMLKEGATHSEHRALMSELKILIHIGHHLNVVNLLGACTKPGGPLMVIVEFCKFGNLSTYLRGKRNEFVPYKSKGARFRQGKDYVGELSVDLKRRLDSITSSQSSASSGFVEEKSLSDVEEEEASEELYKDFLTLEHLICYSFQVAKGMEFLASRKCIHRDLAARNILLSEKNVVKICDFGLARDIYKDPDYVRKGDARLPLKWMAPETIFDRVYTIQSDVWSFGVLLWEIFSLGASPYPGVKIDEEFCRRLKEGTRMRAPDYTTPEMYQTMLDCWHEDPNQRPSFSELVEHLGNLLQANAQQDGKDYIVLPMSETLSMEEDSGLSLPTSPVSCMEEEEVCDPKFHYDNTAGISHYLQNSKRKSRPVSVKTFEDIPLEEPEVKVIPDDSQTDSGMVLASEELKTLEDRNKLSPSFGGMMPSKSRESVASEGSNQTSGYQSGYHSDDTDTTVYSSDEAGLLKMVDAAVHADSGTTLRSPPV

Question: For CNS(=O)(=O)c1ccc2c(c1)C(=Cc1coc3cc(C)c(C)cc3c1=O)C(=O)N2 [10731/D03], which “Met Kinase % Inhibition” value [1] is on record?
Answer: 40.2%

Question: What about the “Fik Kinase %Inhibition” value [2] of the same compound?
Answer: 17.3%

Question: Which “Met Kinase % Inhibition” value [1] does the source give for Cc1cc(C=C2C(=O)Nc3ccc(CCCl)cc32)oc1C [10730/G11] here?
Answer: 46.1%

Question: And the “Fik Kinase %Inhibition” value [2]?
Answer: -1.4%

Question: Cc1cc2occ(C=C3C(=O)Nc4ccc(Br)c(C)c43)c(=O)c2cc1C [10731/C03] was tested. Which “Met Kinase % Inhibition” value [1] did it give?
Answer: 38.7%

Question: And the “Fik Kinase %Inhibition” value [2]?
Answer: 4.5%

Question: Which results are given for CCn1c2ccccc2c2cc(C=C3C(=O)Nc4ccc(Br)c(C)c43)ccc21 [10731/C02]?
Answer: Met Kinase % Inhibition [1]: 11.1%; Fik Kinase %Inhibition [2]: 3.1%

Question: With CC(=O)n1cc(C=C2C(=O)Nc3ccc(CCCl)cc32)c2ccccc21 [10730/G05] as the compound, how does the “Met Kinase % Inhibition” value [1] read?
Answer: 35.8%

Question: What about the “Fik Kinase %Inhibition” value [2] of the same compound?
Answer: 22.3%

Question: How did the “Met Kinase % Inhibition” value [1] turn out when CC(C)c1ccc2occ(C=C3C(=O)Nc4ccc(I)cc43)c(=O)c2c1 [10731/B05] was run?
Answer: 86.0%

Question: What about the “Fik Kinase %Inhibition” value [2] of the same compound?
Answer: 3.8%

Question: Which “Met Kinase % Inhibition” value [1] does the source give for Cc1c(O)ccc(C=C2C(=O)Nc3ccc(Br)c(C)c32)c1O [10718/C09] here?
Answer: 38.2%

Question: And the “Fik Kinase %Inhibition” value [2]?
Answer: 5.3%

Question: Which “Met Kinase % Inhibition” value [1] does the source give for Cc1cc2occ(C=C3C(=O)Nc4c(Br)cc(Br)cc43)c(=O)c2cc1C [10731/A03] here?
Answer: 54.8%

Question: And the “Fik Kinase %Inhibition” value [2]?
Answer: 2.5%

Question: Which results are given for C=C(C)C1CC=C(C=C2C(=O)Nc3c(Br)cc(Br)cc32)CC1 (centres unmarked) [10731/A04]?
Answer: Met Kinase % Inhibition [1]: 43.6%; Fik Kinase %Inhibition [2]: 5.0%

Question: With Cc1cc2occ(C=C3C(=O)Nc4ccc(I)cc43)c(=O)c2cc1C [10731/B03] as the compound, how does the “Met Kinase % Inhibition” value [1] read?
Answer: 60.9%

Question: And the “Fik Kinase %Inhibition” value [2]?
Answer: 1.9%

Question: Which “Met Kinase % Inhibition” value [1] does the source give for Cc1c(Br)ccc2c1C(=Cc1coc3ccc(C(C)C)cc3c1=O)C(=O)N2 [10731/C05] here?
Answer: 78.3%

Question: And the “Fik Kinase %Inhibition” value [2]?
Answer: 14.9%

Question: How did the “Met Kinase % Inhibition” value [1] turn out when Cc1ccc2occ(C=C3C(=O)Nc4c(Br)cc(Br)cc43)c(=O)c2c1 [10731/A06] was run?
Answer: 53.0%

Question: What about the “Fik Kinase %Inhibition” value [2] of the same compound?
Answer: -5.5%

Question: How did the “Met Kinase % Inhibition” value [1] turn out when Cc1c(Br)ccc2c1C(=Cc1coc3ccc([N+](=O)[O-])cc3c1=O)C(=O)N2 [10731/C07] was run?
Answer: -11.6%

Question: What about the “Fik Kinase %Inhibition” value [2] of the same compound?
Answer: 70.4%

Question: What does the source list for COc1cc(C=C2C(=O)Nc3ccc(CCCl)cc32)cc(OC)c1OC [10730/G04]?
Answer: Met Kinase % Inhibition [1]: 47.7%; Fik Kinase %Inhibition [2]: 7.4%

Question: With CCn1c2ccccc2c2cc(C=C3C(=O)Nc4c(Br)cc(Br)cc43)ccc21 [10731/A02] as the compound, how does the “Met Kinase % Inhibition” value [1] read?
Answer: 23.9%

Question: And the “Fik Kinase %Inhibition” value [2]?
Answer: 2.7%

Question: O=C1Nc2ccc(S(=O)(=O)N3CCOCC3)cc2C1=Cc1coc2c(Br)cc(Br)cc2c1=O [10730/F09] was tested. Which “Met Kinase % Inhibition” value [1] did it give?
Answer: 71.1%

Question: What about the “Fik Kinase %Inhibition” value [2] of the same compound?
Answer: 14.4%

Question: How did the “Met Kinase % Inhibition” value [1] turn out when C=C(C)C1CC=C(C=C2C(=O)Nc3ccc(Br)c(C)c32)CC1 (centres unmarked) [10731/C04] was run?
Answer: 32.5%

Question: What about the “Fik Kinase %Inhibition” value [2] of the same compound?
Answer: 10.5%

Question: With CCOC(=O)c1cc(C=C2C(=O)Nc3ccc(Br)c(C)c32)oc1C [10718/C06] as the compound, how does the “Met Kinase % Inhibition” value [1] read?
Answer: 3.9%

Question: And the “Fik Kinase %Inhibition” value [2]?
Answer: 16.8%

Question: Which “Met Kinase % Inhibition” value [1] does the source give for Cc1c(Br)ccc2c1C(=C1C(=O)N(C)c3ccccc31)C(=O)N2 [10731/C10] here?
Answer: 23.3%

Question: And the “Fik Kinase %Inhibition” value [2]?
Answer: 19.7%

Question: What does the source list for O=C1Nc2c(Br)cc(Br)cc2C1=Cc1c[nH]c(=O)[nH]c1=O [10731/A08]?
Answer: Met Kinase % Inhibition [1]: 59.9%; Fik Kinase %Inhibition [2]: -13.8%

Question: For CCn1c2ccccc2c2cc(C=C3C(=O)Nc4ccc(I)cc43)ccc21 [10731/B02], which “Met Kinase % Inhibition” value [1] is on record?
Answer: 71.6%

Question: What about the “Fik Kinase %Inhibition” value [2] of the same compound?
Answer: 6.5%

Question: How did the “Met Kinase % Inhibition” value [1] turn out when CN1C(=O)C(=C2C(=O)Nc3c(Br)cc(Br)cc32)c2ccccc21 [10731/A10] was run?
Answer: 41.2%

Question: What about the “Fik Kinase %Inhibition” value [2] of the same compound?
Answer: -5.3%

Question: For O=C1Nc2ccc(CCCl)cc2C1=Cc1ccc(-c2ccccc2Cl)o1 [10730/G07], which “Met Kinase % Inhibition” value [1] is on record?
Answer: 26.2%

Question: What about the “Fik Kinase %Inhibition” value [2] of the same compound?
Answer: 8.3%

Question: How did the “Met Kinase % Inhibition” value [1] turn out when O=C1Nc2ccc(I)cc2C1=Cc1c[nH]c(=O)[nH]c1=O [10731/B08] was run?
Answer: 57.4%

Question: And the “Fik Kinase %Inhibition” value [2]?
Answer: 6.2%

Question: Which results are given for COc1ccc2[nH]cc(C=C3C(=O)Nc4ccc(Br)c(C)c43)c2c1 [10731/C09]?
Answer: Met Kinase % Inhibition [1]: 22.7%; Fik Kinase %Inhibition [2]: 15.1%

Question: COc1ccc(C=C2C(=O)Nc3ccc(CCCl)cc32)c(OC)c1OC [10730/G02] was tested. Which “Met Kinase % Inhibition” value [1] did it give?
Answer: 41.1%

Question: What about the “Fik Kinase %Inhibition” value [2] of the same compound?
Answer: 23.3%

Question: For COc1cc(OC)c(OC)cc1C=C1C(=O)Nc2ccc(CCCl)cc21 [10730/G03], which “Met Kinase % Inhibition” value [1] is on record?
Answer: 43.2%

Question: What about the “Fik Kinase %Inhibition” value [2] of the same compound?
Answer: 15.2%

Question: O=C1Nc2ccc(I)cc2C1=Cc1coc2ccc([N+](=O)[O-])cc2c1=O [10731/B07] was tested. Which “Met Kinase % Inhibition” value [1] did it give?
Answer: 41.6%

Question: What about the “Fik Kinase %Inhibition” value [2] of the same compound?
Answer: 11.7%

Question: For COC1CC(C=C2C(=O)Nc3ccc(S(=O)(=O)N4CCOCC4)cc32)C(OC)O1 (centres unmarked) [10730/F10], which “Met Kinase % Inhibition” value [1] is on record?
Answer: 42.1%

Question: And the “Fik Kinase %Inhibition” value [2]?
Answer: 13.4%

Question: What does the source list for Cc1cc(C=C2C(=O)Nc3ccc(S(=O)(=O)N4CCOCC4)cc32)oc1C [10730/F11]?
Answer: Met Kinase % Inhibition [1]: 53.6%; Fik Kinase %Inhibition [2]: -1.3%

Question: Which “Met Kinase % Inhibition” value [1] does the source give for COC1CC(C=C2C(=O)Nc3ccc(CCCl)cc32)C(OC)O1 (centres unmarked) [10730/G10] here?
Answer: 42.1%

Question: What about the “Fik Kinase %Inhibition” value [2] of the same compound?
Answer: 11.3%

Question: For CCOC(=O)CCc1c(C(=O)OCC)[nH]c(C=C2C(=O)Nc3ccc(Br)c(C)c32)c1CC(=O)OCC [10718/C05], which “Met Kinase % Inhibition” value [1] is on record?
Answer: 8.7%

Question: And the “Fik Kinase %Inhibition” value [2]?
Answer: 20.5%

Question: How did the “Met Kinase % Inhibition” value [1] turn out when CN1C(=O)C(=C2C(=O)Nc3ccc(I)cc32)c2ccccc21 [10731/B10] was run?
Answer: 72.9%

Question: What about the “Fik Kinase %Inhibition” value [2] of the same compound?
Answer: 1.3%

Question: What does the source list for O=C1Nc2c(Br)cc(Br)cc2C1=Cc1ccc[nH]1 [10717/A09]?
Answer: Met Kinase % Inhibition [1]: 9.4%; Fik Kinase %Inhibition [2]: -3.9%

Question: What does the source list for Cc1ccc2occ(C=C3C(=O)Nc4ccc(I)cc43)c(=O)c2c1 [10731/B06]?
Answer: Met Kinase % Inhibition [1]: 56.2%; Fik Kinase %Inhibition [2]: 6.2%

Question: With Cc1ccc2occ(C=C3C(=O)Nc4ccc(Br)c(C)c43)c(=O)c2c1 [10731/C06] as the compound, how does the “Met Kinase % Inhibition” value [1] read?
Answer: 18.2%

Question: And the “Fik Kinase %Inhibition” value [2]?
Answer: 13.8%

Question: What does the source list for COC(=O)c1[nH]c(C)c(C=C2C(=O)Nc3ccc(Br)c(C)c32)c1C(=O)OC [10718/C07]?
Answer: Met Kinase % Inhibition [1]: 29.6%; Fik Kinase %Inhibition [2]: 6.3%

Question: For Cc1c(Br)ccc2c1C(=Cc1ccc(Cl)c([N+](=O)[O-])c1)C(=O)N2 [10718/C08], which “Met Kinase % Inhibition” value [1] is on record?
Answer: 22.7%

Question: What about the “Fik Kinase %Inhibition” value [2] of the same compound?
Answer: 19.6%

Question: Cc1c(Br)ccc2c1C(=Cc1c[nH]c(=O)[nH]c1=O)C(=O)N2 [10731/C08] was tested. Which “Met Kinase % Inhibition” value [1] did it give?
Answer: 25.8%

Question: What about the “Fik Kinase %Inhibition” value [2] of the same compound?
Answer: 10.2%

Question: What does the source list for CCn1c2ccccc2c2cc(C=C3C(=O)Nc4ccc(S(=O)(=O)NC)cc43)ccc21 [10731/D02]?
Answer: Met Kinase % Inhibition [1]: 8.7%; Fik Kinase %Inhibition [2]: -8.4%

Question: Which results are given for C=C(C)C1CC=C(C=C2C(=O)Nc3ccc(I)cc32)CC1 (centres unmarked) [10731/B04]?
Answer: Met Kinase % Inhibition [1]: 71.0%; Fik Kinase %Inhibition [2]: 12.0%

Question: Which results are given for O=C1Nc2c(Br)cc(Br)cc2C1=Cc1coc2ccc([N+](=O)[O-])cc2c1=O [10731/A07]?
Answer: Met Kinase % Inhibition [1]: 49.5%; Fik Kinase %Inhibition [2]: -4.3%

Question: Which results are given for CC(C)c1ccc2occ(C=C3C(=O)Nc4c(Br)cc(Br)cc43)c(=O)c2c1 [10731/A05]?
Answer: Met Kinase % Inhibition [1]: 85.8%; Fik Kinase %Inhibition [2]: -6.5%

Question: O=C1Nc2ccc(CCCl)cc2C1=Cc1cc2ccccc2nc1Cl [10730/G08] was tested. Which “Met Kinase % Inhibition” value [1] did it give?
Answer: 16.6%

Question: What about the “Fik Kinase %Inhibition” value [2] of the same compound?
Answer: 23.3%

Question: What does the source list for COc1ccc2[nH]cc(C=C3C(=O)Nc4ccc(I)cc43)c2c1 [10731/B09]?
Answer: Met Kinase % Inhibition [1]: 29.6%; Fik Kinase %Inhibition [2]: -0.5%

Question: Which results are given for COc1ccc2[nH]cc(C=C3C(=O)Nc4c(Br)cc(Br)cc43)c2c1 [10731/A09]?
Answer: Met Kinase % Inhibition [1]: 46.7%; Fik Kinase %Inhibition [2]: -2.7%
